Our source for the IC50 values is ChEMBL document CHEMBL4043256, “Discovery of N-substituted 7-azaindoles as PIM1 kinase inhibitors - Part I” (Bioorg Med Chem Lett, 2017).

The target in assay [1] is Serine/threonine-protein kinase pim-3 (Homo sapiens, UniProt Q86V86). Description: Inhibition of PIM3 (unknown origin) assessed as reduction in full length human BAD phosphorylation at Ser112 residues by TR-FRET assay. On the technique in general: Time-resolved FRET reads energy transfer from a long-lived donor to a nearby acceptor.
Assay [2] has as its target Serine/threonine-protein kinase pim-2 (Homo sapiens, UniProt Q9P1W9). Nature of the assay: Inhibition of PIM2 (unknown origin) assessed as reduction in full length human BAD phosphorylation at Ser112 residues by TR-FRET assay.
The target of assay [3] is Cyclin-dependent kinase 9 (Homo sapiens, UniProt P50750).
Sequence of Cyclin-dependent kinase 9 (P50750 whole entry): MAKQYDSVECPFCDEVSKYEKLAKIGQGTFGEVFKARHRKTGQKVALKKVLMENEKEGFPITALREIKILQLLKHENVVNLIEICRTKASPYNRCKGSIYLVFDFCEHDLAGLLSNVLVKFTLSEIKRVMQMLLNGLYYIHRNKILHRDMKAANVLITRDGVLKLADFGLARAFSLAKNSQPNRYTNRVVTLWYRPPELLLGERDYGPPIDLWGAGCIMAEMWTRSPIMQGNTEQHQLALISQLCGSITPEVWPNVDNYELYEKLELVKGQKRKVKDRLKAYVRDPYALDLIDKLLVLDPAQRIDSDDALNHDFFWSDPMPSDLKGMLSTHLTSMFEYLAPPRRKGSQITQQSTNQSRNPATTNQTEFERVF
Assay [4] deals with Cell division cycle 7-related protein kinase (Homo sapiens, UniProt O00311). Nature of the assay: Inhibition of CDC7 (unknown origin).
Sequence of Cell division cycle 7-related protein kinase (O00311 whole entry): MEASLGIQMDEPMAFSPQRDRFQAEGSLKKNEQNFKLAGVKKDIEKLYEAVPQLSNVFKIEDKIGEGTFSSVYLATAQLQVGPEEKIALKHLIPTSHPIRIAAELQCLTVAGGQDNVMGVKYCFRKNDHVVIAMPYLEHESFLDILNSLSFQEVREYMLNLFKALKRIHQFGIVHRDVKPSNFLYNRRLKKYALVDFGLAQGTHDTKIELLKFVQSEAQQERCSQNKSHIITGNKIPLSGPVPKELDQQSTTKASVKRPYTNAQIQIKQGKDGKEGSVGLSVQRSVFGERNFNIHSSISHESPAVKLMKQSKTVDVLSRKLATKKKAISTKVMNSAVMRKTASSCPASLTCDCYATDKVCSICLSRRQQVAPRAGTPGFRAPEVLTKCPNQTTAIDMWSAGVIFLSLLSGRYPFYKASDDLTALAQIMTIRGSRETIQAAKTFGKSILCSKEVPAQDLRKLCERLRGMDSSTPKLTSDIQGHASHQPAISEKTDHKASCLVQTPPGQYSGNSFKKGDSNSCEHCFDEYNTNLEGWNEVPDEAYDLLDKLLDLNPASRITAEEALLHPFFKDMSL

Sequence of Serine/threonine-protein kinase pim-2 (Q9P1W9 whole entry): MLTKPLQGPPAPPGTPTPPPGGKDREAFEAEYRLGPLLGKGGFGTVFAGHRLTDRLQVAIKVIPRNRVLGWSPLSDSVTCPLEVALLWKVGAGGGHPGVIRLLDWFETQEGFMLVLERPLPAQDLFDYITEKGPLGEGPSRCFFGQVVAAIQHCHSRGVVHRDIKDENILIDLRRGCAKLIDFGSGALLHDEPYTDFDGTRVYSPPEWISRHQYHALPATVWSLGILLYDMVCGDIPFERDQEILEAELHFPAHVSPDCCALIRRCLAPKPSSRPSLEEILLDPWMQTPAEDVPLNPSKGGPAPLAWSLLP

As to `Cc1c(-c2ccc(N3CCNCC3)cc2)n(C)c2nc(C(N)=O)cc(Cl)c12`, the figures for the IC50 in assay [1] and in assay [2] were 290 nM and 1270 nM, respectively.

`CN1CCN(c2ccc(-c3cc4c(Cl)cc(C(N)=O)nc4n3C)cc2)CC1`: the IC50 (commonly the midpoint of a concentration-inhibition curve) in assay [1] was 400 nM; in assay [2], over 30000 nM.

As for `Cn1c(-c2ccc(N3CCNCC3)cc2)c(-c2ccc(CO)cc2)c2c(Cl)ccnc21`, the figures for the IC50 in assay [1] and in assay [2] were 10600 nM and 13800 nM, respectively.

On to `Clc1ccnc2[nH]c(-c3ccc(N4CCNCC4)cc3)cc12`, for which the IC50 was 20 nM in assay [3] and 40 nM in assay [4].

For `CN(C)Cc1ccc(-c2c(-c3ccc(N4CCNCC4)cc3)n(C)c3nc(C(N)=O)cc(Cl)c23)cc1`, in assay [2], the IC50 is over 30000 nM.

For `CN(C)Cc1ccc(-c2c(-c3ccc(N4CCN(C)CC4)cc3)n(C)c3nccc(Cl)c23)cc1`, the values for the IC50 in assay [1] and in assay [2] were 1400 nM and 3300 nM, respectively.

Regarding `CN1CCC(NC(=O)c2ccc(-c3c(-c4ccc(N5CCN(C)CC5)cc4)n(C)c4nccc(Cl)c34)cc2)CC1`, the IC50 in assay [1] came out at 492 nM; in assay [2], 872 nM.
